According to ChEMBL document CHEMBL1201862, “PubChem BioAssay data set” (2004):
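Where inhibition never reached the appropriate level, the endpoint shown equals the highest concentration tested. Otherwise, values were interpolated linearly from a five-concentration, 48-hour dose response in 96-well plates. Abbreviation: GI50, concentration required for 50% inhibition of growth.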 Calls of active or inactive are those of the source. Cut-off read from the data, not from the text of the source: active = GI50 up to about 1.1 µM and inactive = higher.

Legend:
Assay in all cases: inhibition of tumour cell growth, NCI panel, 48 h
[1] = system: DMS-114
[2] = system: DMS-273
[3] = system: KM-20L2
[4] = system: HOP-18
[5] = system: SNB-78
[6] = system: RXF 631
[7] = system: LXFL 529
[8] = system: BT-549
[9] = system: Hs-578T

| SMILES | GI50 [8] | GI50 [9] | also measured |
| --- | --- | --- | --- |
| O=C(O)CCCCCCC[C@@H]1S[C@H]1CCCCCCO |  |  | GI50 [1]: > 100 µM (inactive); GI50 [2]: > 100 µM (inactive); GI50 [3]: > 100 µM (inactive); GI50 [4]: > 100 µM (inactive); GI50 [5]: > 100 µM (inactive) |
| CC(=O)OCC1OC(n2cnc3c(I)nc(I)nc32)C(OC(C)=O)C1OC(C)=O (configuration not stated) |  |  | GI50 [6]: 15.5 µM (inactive); GI50 [7]: 13.4 µM (inactive); GI50 [1]: 4.21 µM (inactive); GI50 [2]: 6.84 µM (inactive); GI50 [3]: 17.6 µM (inactive) |
| CC(=O)Oc1c(OC(C)=O)c(-c2ccc(O)c(O)c2)c(O)c(O)c1-c1ccc(O)cc1 |  |  | GI50 [1]: 21.3 µM (inactive); GI50 [2]: > 100 µM (inactive); GI50 [4]: > 100 µM (inactive) |
| CN(C)CCNc1ccc2nnn3c4ccc(O)cc4c(=O)c1c23 | 15.2 µM (inactive) | 2.03 µM (inactive) | GI50 [7]: 3.01 µM (inactive); GI50 [1]: 5.79 µM (inactive); GI50 [3]: 7.82 µM (inactive); GI50 [4]: 21.3 µM (inactive); GI50 [5]: 12.7 µM (inactive) |
| COC(=O)/C(=C1\OC(=O)C(c2ccc(Cl)cc2)=C1O)c1ccc(Cl)cc1 |  |  | GI50 [7]: 26.6 µM (inactive); GI50 [1]: 15.8 µM (inactive); GI50 [2]: 13.2 µM (inactive); GI50 [3]: 28.6 µM (inactive); GI50 [4]: 21 µM (inactive); GI50 [5]: 26.4 µM (inactive) |
| O=C1C=CC(=O)c2c1ccc1c3ccccc3n(-c3cccc([N+](=O)[O-])c3)c21 | 1.69 µM (inactive) | 3.76 µM (inactive) |  |
| COc1ccc(N2C(=O)C3ON(Cc4ccc(CC(N)=O)cc4)C(c4c5ccccc5c(C)c5ccccc45)C3C2=O)cc1 (configuration not stated) | 30.1 µM (inactive) | 54.8 µM (inactive) |  |
| CC[C@@]1(O)C(=O)OCc2c1cc1n(c2=O)Cc2c-1nc1ccc(N)cc1c2CC[Si](C)(C)C | < 0.01 µM (active) | 0.134 µM (active) |  |
| O=c1oc2cc(/N=C/c3ccccc3Cl)ccc2c2ccccc12 | > 100 µM (inactive) | > 100 µM (inactive) |  |
| CC(C)CC/N=c1/cc2n(-c3ccc(Cl)cc3)c3ccccc3nc-2cc1Nc1ccc(Cl)cc1 |  |  | GI50 [1]: 1.94 µM (inactive); GI50 [2]: 14.6 µM (inactive); GI50 [3]: 1.34 µM (inactive); GI50 [4]: 7.05 µM (inactive); GI50 [5]: 15.5 µM (inactive) |
| CCCCC1(O)CC2CC1C(C)C2(C)C (configuration not stated) | > 100 µM (inactive) | 84.5 µM (inactive) |  |
| Cc1c2ccncc2c(C)c2c1[nH]c1ccc(O)c(OCC(F)(F)F)c12 |  |  | GI50 [7]: 5.12 µM (inactive); GI50 [1]: 2.44 µM (inactive); GI50 [2]: 1.79 µM (inactive); GI50 [3]: 12.2 µM (inactive); GI50 [5]: 4.47 µM (inactive) |
| CN1CCc2c(sc3ncn(Nc4ccc(F)cc4)c(=N)c23)C1 | > 100 µM (inactive) | > 100 µM (inactive) |  |
| COc1cc(S(=O)(=O)Nc2ccc(-c3csc(N4C(=O)C(Cl)C4c4ccccc4)n3)cc2)ccc1Cl (configuration not stated) | 26.9 µM (inactive) | > 100 µM (inactive) |  |
| CCCNC1=C2C[C@@H](C)C[C@@H](OC)[C@@H](OC(=O)CCCN)[C@H](C)/C=C(\C)[C@@H](OC(N)=O)[C@H](OC)/C=C\C=C(/C)C(=O)NC(=CC1=O)C2=O | 13.2 µM (inactive) | 25.6 µM (inactive) |  |
| C/C=N\n1c(C)c(C#N)c(C#N)c1N | > 100 µM (inactive) | > 100 µM (inactive) |  |
| C[C@]12CC[C@H](O)CC1=CC[C@@H]1[C@@H]2CC[C@]2(C)C(=N/N)/C(=N\O)C[C@@H]12 | 32.8 µM (inactive) |  |  |

| SMILES | GI50 [8] | GI50 [9] | also measured |
| --- | --- | --- | --- |
| COC1=CC(=O)c2c(c(COC(C)=O)cn2C)C1=O | 0.0208 µM (active) |  |  |
| CN(C)CCNC(=O)c1cccc2[nH]c(-c3ccncc3)nc12 | 11.4 µM (inactive) | 4.59 µM (inactive) |  |
| Cc1ccc(/N=N/c2c(O)ccc3cc(S(=O)(=O)O)ccc23)c(C)c1 | > 100 µM (inactive) | > 100 µM (inactive) |  |
| COC(=O)/C=C1/OC(c2ccc(OC)cc2)=C(Cl)C1=O | 13.3 µM (inactive) | 25.8 µM (inactive) |  |
| O=C1NC(O)c2cc3ccccc3cc2O1 (configuration not stated) | 26.4 µM (inactive) | 37.1 µM (inactive) |  |
| COc1ccc2c(c1)CCN1CCCc3ccccc3C21 (configuration not stated) | 28.1 µM (inactive) | 42.1 µM (inactive) |  |
| O=S(=O)(CC(O)C(Cl)(Cl)Cl)NNc1ccccc1 (configuration not stated) | > 100 µM (inactive) | > 100 µM (inactive) |  |
| OCCO[P+]1(OCCO)n2c3ccc2C(c2ccccc2)=C2C=CC(=N2)C(c2ccccc2)=c2ccc(n21)=C(c1ccccc1)C1=NC(=C3c2ccccc2)C=C1 | 0.0118 µM (active) | 0.0237 µM (active) |  |
| CC/C(=C\c1ccc(OC)cc1)c1ccc(OC)cc1 | 75.3 µM (inactive) | > 100 µM (inactive) |  |
| Cc1c([N+](=O)[O-])ccc2c(NCCCN(C)C)ccnc12 | 17.9 µM (inactive) | 24 µM (inactive) |  |
| CNC(=S)/C(C#N)=C(\N)N1CCCC1 |  | > 100 µM (inactive) |  |
| Cc1cn(CCCCCCOC(=O)NC(CCCNC(N)=O)C(=O)O)c(=O)[nH]c1=O (configuration not stated) | > 100 µM (inactive) | > 100 µM (inactive) |  |
| COc1ccc(CC(CO)NC(=O)OCc2ccccc2)cc1Oc1ccc(CC(CO)NC(=O)OCc2ccccc2)cc1 (configuration not stated) | 12.4 µM (inactive) |  |  |
| CC(C)OC(=O)[C@@H](O)[C@H](CO)C1=CC([Si](C)(C)c2ccccc2)=CON1 | > 100 µM (inactive) |  |  |
| O=S(=O)(c1ccc2ccccc2c1)N1CCN(S(=O)(=O)c2ccc3ccccc3c2)CC1 | > 100 µM (inactive) | 31 µM (inactive) |  |
| COc1ccc2oc3c(ccc[n+]3C)c(=O)c2c1 |  | > 100 µM (inactive) |  |
